US7384656B2, “Anti-allergy composition and related method” (Access Business Group International LLC, priority 2004, dated 2008)

How the values were obtained:
[1] = system: IgE secretion by U266 human myeloma cells; assay: IgE secretion by U266 human myeloma cells (IgE ELISA of supernatants); format: cell-based; conditions: for Percent Control, IgE Secretion (IgE) (Table VIII): 100 μg/ml (no concentration printed for Formula)
Description: The methodology used to obtain the results of FIG. 3 will now be described. First, U266 human myeloma cells, available from ATCC of Manassas, Va. were plated in 96 well plates at 4×10^4/well. The cells were exposed to the sample combinations of ingredients listed in Table I, each combination referred to as a “sample.” Stock solutions of all samples were prepared in a solution of DMSO, ethanol, and water present in a ratio of 5:3:2 at 100 mg/ml. Each sample was then diluted to 100 μg/ml in media. Duplicate plates of each sample were prepared so that viability could be determined multiple times for each sample, with the results of the multiple samples averaged following treatment of the cells. The plates were incubated an additional 48 hours. Thereafter, the amount of IgE in the supernatants was measured using a conventional quantitative IgE ELISA kit available from Bethyl Laboratories of Montgomery, Tex. Next, the measured OD450 data from the IgE ELISA was inputted into a calibration graph, illustrated in FIG. 4, to determine the concentration of IgE in ng/ml in each supernatant. This calibration graph was generated by measuring the OD450 of multiple, known concentrations (in nanograms per ml) of purified IgE. As shown in the graph, the X-axis indicates the concentrations of the IgE in ng/ml; and the Y-axis indicates the OD450 derived from each of the concentrations. The line 100 connects the data points, while line 110 is a trend line corresponding to the equation in this particular embodiment of: Y=0.2909X−0.2527 Equation 1 With the IgE calibration graph, the amount of IgE for each sample was determined, and the subsequent data was input into FIG. 3 for comparative analysis.

[2] = system: IgE receptor (FcεRIα) on RBL-2H3 cells; assay: IgE receptor expression on RBL-2H3 cells (anti-FcεRIα cell ELISA normalized to MTT viability); format: cell-based; conditions: 100 μg/ml
Description: The methodology used to obtain the results of FIG. 1 will now be described. First, RBL-2H3 cells, available from ATCC (American Type Culture Collection) of Manassas, Va., were plated in 96 well plates at 3×10^4/well. Following adherence to the wells, the cells were exposed to the sample combinations of ingredients listed in Table I, each combination referred to as a “sample.” Stock solutions of all samples were prepared in a solution of DMSO, ethanol, and water present in a ratio of 5:3:2 at 100 mg/ml. […] Duplicate plates of each sample were prepared so that viability could be determined multiple times for each sample, with the results of the multiple samples averaged following treatment of the cells. The plates were incubated an additional 48 hours. To measure IgE-receptor expression, the cells were fixed for 2 hours with 1% gluteraldehyde. Following fixation, the cells were washed twice with PBS-Tween 20 (0.01%), available from Aldrich of Milwaukee, Wis. Protein binding sites were blocked for 2 hours with 2% non-fat dry milk in PBS (Phosphate Buffer Saline buffered at pH 7.3). The cells were washed twice. The primary antibody, Rabbit anti-FcεRIα, available from Upstate Group, Inc., Lake Placid, N.Y., was added to the wells and diluted 1:4000 with 0.2% BSA (Bovine Serum Albumin). Following a 2 hour incubation, the wells were washed 5× with PBS-Tween 20 (0.01%) solutions. The secondary antibody, Goat anti-rabbit IgG-peroxidase, available from Sigma-Aldrich of St. Louis, Mo., was added to the wells at 1:20000 with 0.2% BSA. Following a 1 hour incubation the wells were washed five times. 100 μliters (microliters) of TMB (3,3′,5,5±Tetramethyl benzidine dihydrochloride) Substrate, available from Chemicon International of Temecula, Calif., was added to the wells. Subsequent color development was stopped by the addition of a sufficient amount, H2SO4 (for example, 100 μliters at 1 Normal). For each of the multiple samples of the combination, the OD450 (Optical Density measured at a wavelength of 450 nanometers) was read on a plate reader. Continuing with a description of the methodology to obtain the data in FIG. 1, the viability of the cells was next determined by incubating the cells in the second plate with MTT in a concentration of 1 mg/ml for 3 hours. The reduced MTT was extracted with 70% isopropanol and the OD540 (Optical Density at a wavelength of 540 nanometers) was read for each of the multiple samples.

[3] = listed as Luteolin from Perilla seed

O=c1cc(-c2ccc(O)c(O)c2)oc2cc(O)cc(O)c12 [Luteolin]
Percent Control, IgE Secretion (IgE) (Table VIII) [1]: about 95%
Percent Control, IgE Secretion (IgE) (Table VIII) [1, 3]: 95.5%
Percent Control IgE-Secretion (Table V) ([1]; 100 μg/ml, relative to untreated control cells): 53%
Percent Control, IgE Receptor Expression (IgE-R) (Table VIII) [2]: about 90%
effect on IgE receptor expression, in words (FIG. 7) [2]: significant effect
Percent Control IgE-Receptor (Table IV) ([2]; relative to untreated control cells): 82%
Percent Control, IgE Receptor Expression (IgE-R) (Table VIII) [2, 3]: 90.1%
